{"source": "paper PMC12610274", "about": "“Identification of Marrubiin as a Cathepsin C Inhibitor for Treating Rheumatoid Arthritis” (Molecules, 2025)", "key": {"[1]": {"molecular_target": "Dipeptidyl Peptidase 9 (Homo sapiens, UniProt Q86TI2)", "sequence (Q86TI2 whole entry, species assumed)": "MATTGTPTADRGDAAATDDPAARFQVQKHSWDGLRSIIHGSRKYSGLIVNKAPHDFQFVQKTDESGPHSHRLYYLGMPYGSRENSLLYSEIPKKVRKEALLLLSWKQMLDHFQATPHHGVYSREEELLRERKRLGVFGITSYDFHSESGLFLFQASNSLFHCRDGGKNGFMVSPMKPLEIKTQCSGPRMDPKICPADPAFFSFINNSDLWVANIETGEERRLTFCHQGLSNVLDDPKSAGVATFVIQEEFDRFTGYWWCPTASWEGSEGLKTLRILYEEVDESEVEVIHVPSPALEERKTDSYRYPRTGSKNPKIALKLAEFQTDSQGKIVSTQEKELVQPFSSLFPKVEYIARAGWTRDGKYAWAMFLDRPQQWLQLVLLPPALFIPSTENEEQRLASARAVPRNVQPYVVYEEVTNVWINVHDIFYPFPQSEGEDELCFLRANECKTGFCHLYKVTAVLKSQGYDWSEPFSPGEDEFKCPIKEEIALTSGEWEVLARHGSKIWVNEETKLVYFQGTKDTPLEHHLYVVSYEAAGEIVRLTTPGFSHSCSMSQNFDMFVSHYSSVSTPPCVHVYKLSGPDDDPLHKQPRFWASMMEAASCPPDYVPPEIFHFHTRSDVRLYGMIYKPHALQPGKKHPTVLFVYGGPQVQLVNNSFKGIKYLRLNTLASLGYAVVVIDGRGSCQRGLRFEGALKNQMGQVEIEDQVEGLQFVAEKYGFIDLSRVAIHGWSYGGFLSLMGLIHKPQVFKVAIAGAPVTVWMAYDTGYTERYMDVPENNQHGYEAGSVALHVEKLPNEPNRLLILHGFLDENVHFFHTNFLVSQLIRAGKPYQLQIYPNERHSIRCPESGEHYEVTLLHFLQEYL", "test": "Recombinant dipeptidyl peptidases isolated enzyme assay, DPP9", "format": "biochemical", "details": "read-out: Dipeptidyl Peptidase 9 Enz (IC50: μM)", "excerpt": "Table 3 Inhibitory effects of marrubiin on dipeptidyl peptidase. | column: Dipeptidyl Peptidase 9 Enz (IC50: μM)"}, "[2]": {"test_system": "TNF-α, IL-6, IL-1β, MCP-1, CXCL2 in RAW 264.7 cells", "test": "LPS-induced cytokine and chemokine secretion, ELISA", "format": "cell-based, mouse", "details": "LPS-stimulated RAW 264.7 cells, 24 h, concentration-dependent", "experimental": "RAW264.7 cells in the logarithmic growth phase were counted and diluted to a concentration of 6 × 10^4 cells/mL. After thorough mixing, the cell suspension was seeded into 48-well plates and incubated in a humidified atmosphere containing 5% CO2 at 37 °C. Following 24 h of incubation, the culture medium was carefully aspirated, and the cells were gently washed with phosphate-buffered saline. […] After 1 h of pre-incubation, 30 μL of lipopolysaccharide (1 μg/mL) was added to each well except for the blank control group, which remained unstimulated. Following an additional 24 h incubation under identical conditions, the culture supernatants were collected to assess NO production using the Griess reagent assay. Concentrations of pro-inflammatory cytokines and chemokines were determined using commercially available ELISA kits according to the protocols."}, "[3]": {"test_system": "PR3", "test": "NSPs activity in U937 cells after 5 days of treatment, PR3", "format": "cell-based, human", "details": "U937, 10 μM", "experimental": "U937 cells in the logarithmic growth phase were collected and equally divided into six portions. Four of these portions were treated with DMSO solutions of the test compound at varying concentrations to achieve final concentrations of 1.25, 2.5, 5, and 10 μM, respectively. An equal volume of DMSO was added to one portion as a blank control, while another portion treated with a DMSO solution of AZD7986 served as a positive control. The cells were cultured under standard U937 conditions for 5 consecutive days, with daily medium changes and fresh compound treatments administered using the same protocol. Following 5 days of treatment, cells were harvested, washed twice thoroughly with phosphate-buffered saline, and lysed in phosphate-buffered saline containing 1% Triton X-100. The lysates were centrifuged to collect the supernatant, and protein concentrations were determined as previously described to ensure equal total protein loading across all samples. The prepared samples were stored at −20 °C until further analysis. Different assay buffers were prepared for diluting samples and measuring the activities of specific NSPs: a buffer containing 50 mM Tris and 750 mM NaCl (pH 7.4) was used for NE and PR3; a buffer containing 50 mM Tris, 750 mM NaCl, 5 mM EDTA (pH 7.4) was used for Cat G; and a buffer containing 25 mM MES, 50 mM NaCl, 5 mM DTT (pH 6.0) was used for CTSC. […]"}, "[4]": {"test_system": "PR3", "test": "Stability (protein level) of NSPs in U937 cells, Western blot, PR3", "format": "cell-based, human", "details": "U937, 10 μM", "experimental": "The Western blot experiments in this study were performed as described below. Cells in the logarithmic growth phase were collected in appropriate numbers according to different experimental purposes. After being thoroughly washed with phosphate-buffered saline and centrifuged, the cell pellets were resuspended in phosphate-buffered saline to obtain single-cell suspensions. Cells were fully lysed using RIPA buffer (Beyotime, P0013B) supplemented with EDTA-free protease and phosphatase inhibitor (Abcam, ab201120). Total cellular protein solutions were obtained after centrifugation to remove cell debris. The isolated proteins were quantified using the BeyoBCA protein assay kit (Beyotime, P0399M) following the operational protocol. The quantified protein samples were thoroughly mixed with protein loading buffer, boiled on a dry bath for 5 min, and then cooled to room temperature for Western blot analysis. […] Finally, enhanced chemiluminescent horseradish peroxidase substrate (Tanon Science & Technology Co., Ltd., Shanghai, China, 180-506) was used to visualize protein bands on a ChemiDoc XRS system (Bio-Rad Laboratories, Inc., Hercules, CA, USA), and the protein bands were quantified using Image Lab analysis software (Version 6.1) (Bio-Rad). […]"}}}
{"smiles": "C[C@@H]1C[C@H]2OC(=O)[C@@]3(C)CCC[C@@](C)([C@@H]23)[C@@]1(O)CCc1ccoc1", "note": "[Marrubiin, marrubiin]", "values": [{"measurement": "IC50", "setting": "[1]", "value": "> 10", "unit": "µM"}, {"measurement": "relative levels of TNF-α, IL-6, IL-1β, MCP-1, CXCL2", "setting": "[2]", "value": "reduced to varying degrees"}, {"measurement": "PR3 activity, % of DMSO group", "setting": "[3]", "value": 10.3, "unit": "%"}, {"measurement": "PR3 protein level, % of original level", "setting": "[4]; 96 h", "value": 28.2, "unit": "%"}, {"measurement": "PR3 protein level, % of original level", "setting": "[4]; 5 days", "value": 15.8, "unit": "%"}]}
